Where two headings read alike, the source gives them in different places.
Experiment: Mouse blood and tissue PK (LC/MS-MS)
Assay type: in vivo
Conditions: mouse; for concentration at 2 h / concentration at 24 h / concentration at 4 h / concentration at 8 h / concentration at 48 h / Kp: oral; for concentration at 2 h / concentration at 24 h / concentration at 4 h / concentration at 8 h / concentration at 48 h: read-out: RMC-6236 (nM) Tumor; for Kp: tumor relative to whole blood, read-out: Tumor/Blood AUC Ratio; for AUC(0-t): read-out: Blood AUClast
Method: For single-dose PKPD study, mice were randomized and assigned into groups (n = 3/dose/time point). […] Blood and tissues, including the tumor, brain, colon, ear skin, and muscle, were harvested at indicated time points. […] The whole blood, tumor, brain, colon, and ear skin concentrations of RMC-6236 were determined using liquid chromatography–tandem mass spectrometry (LC/MS-MS) methods. […] After thorough mixing and centrifugation, the supernatant was diluted with water or directly analyzed on a Sciex 5500 or Sciex 6500+ triple quadrupole mass spectrometer equipped with an ACQUITY or Shimadzu UPLC system. […] Bioanalysis on blood and tissue samples from xenograft models was run at Pharmaron and Wuxi AppTec. Concentrations reported as below the quantification limit were treated as zero for PK analysis. PK parameters were calculated by noncompartmental analysis of the concentration–time profiles using Phoenix WinNonLin (version 8.3 Certara). Apparent terminal elimination half-life (t1/2) values were calculated as ln(2)/k, where k represents the terminal elimination rate constant. Area under the concentration–time curve (AUC) values were estimated using a linear trapezoidal method. AUClast values were calculated from the dosing time to the last quantifiable concentration. Maximum concentration (Cmax) was recorded as observed.

[1] = BALB/c nude, ear skin, 3 mg/kg, sheet Ear Skin, model Capan-2, study Capan-2 #3_PHA 2023, 3 mg/kg
[2] = BALB/c nude, ear skin, 10 mg/kg, sheet Ear Skin, model Capan-2, study Capan-2 #3_PHA 2023, 10 mg/kg
[3] = BALB/c nude, ear skin, 25 mg/kg, sheet Ear Skin, model Capan-2, study Capan-2 #3_PHA 2023, 25 mg/kg
[4] = BALB/c nude, ear skin, 50 mg/kg, sheet Ear Skin, model Capan-2, study Capan-2 #3_PHA 2023, 50 mg/kg
[5] = BALB/c nude, ear skin, 100 mg/kg, sheet Ear Skin, model Capan-2, study Capan-2 #3_PHA 2023, 100 mg/kg
[6] = BALB/c nude, tumor, 0.3 mg/kg, Capan-2, study Capan-2 #3_PHA 2020, 0.3 mg/kg
[7] = BALB/c nude, tumor, 3 mg/kg, Capan-2, study Capan-2 #3_PHA 2020, 3 mg/kg
[8] = BALB/c nude, tumor, 3 mg/kg, Capan-2, study Capan-2 #3_PHA 2023, 3 mg/kg
[9] = BALB/c nude, tumor, 10 mg/kg, Capan-2, study Capan-2 #3_PHA 2020, 10 mg/kg
[10] = BALB/c nude, tumor, 10 mg/kg, Capan-2, study Capan-2 #3_PHA 2023, 10 mg/kg
[11] = BALB/c nude, tumor, 10 mg/kg, sheet colon, Capan-2, Capan-2 #3_PHA 2023, 10 mg/kg
[12] = BALB/c nude, tumor, 25 mg/kg, Capan-2, study Capan-2 #3_PHA 2020, 25 mg/kg
[13] = BALB/c nude, tumor, 25 mg/kg, Capan-2, study Capan-2 #3_PHA 2023, 25 mg/kg
[14] = BALB/c nude, tumor, 25 mg/kg, sheet colon, Capan-2, Capan-2 #3_PHA 2023, 25 mg/kg
[15] = BALB/c nude, tumor, 40 mg/kg, Capan-2, study Capan-2 #3_PHA 2020, 40 mg/kg
[16] = BALB/c nude, tumor, 50 mg/kg, Capan-2, study Capan-2 #3_PHA 2023, 50 mg/kg
[17] = BALB/c nude, tumor, 50 mg/kg, sheet colon, Capan-2, Capan-2 #3_PHA 2023, 50 mg/kg
[18] = BALB/c nude, tumor, 100 mg/kg, Capan-2, study Capan-2 #3_PHA 2023, 100 mg/kg
[19] = BALB/c nude, tumor, 100 mg/kg, sheet colon, Capan-2, Capan-2 #3_PHA 2023, 100 mg/kg
[20] = BALB/c nude, whole blood, po, 3 mg/kg, Capan-2 (3 mg/kg), single dose
[21] = BALB/c nude, whole blood, po, 10 mg/kg, Capan-2 (10 mg/kg), single dose
[22] = BALB/c nude, whole blood, po, 25 mg/kg, Capan-2 (25 mg/kg), single dose
[23] = Balb/c nude, whole blood, po, 25 mg/kg, LU99-luc IC #2 (25 mg/kg), single dose

Q: With `CCn1c(-c2cc(N3CCN(C)CC3)cnc2[C@H](C)OC)c2c3cc(ccc31)-c1csc(n1)C[C@H](NC(=O)[C@H]1C[C@@H]1C)C(=O)N1CCC[C@H](N1)C(=O)OCC(C)(C)C2` [RMC-6236] as the compound, how does the concentration at 2 h (BALB/c nude, colon, 3 mg/kg, sheet colon, Capan-2, Capan-2 #3_PHA 2023, 3 mg/kg) read?
A: 1370 nM

Q: What about the concentration at 2 h (BALB/c nude, colon, 25 mg/kg, sheet colon, Capan-2, Capan-2 #3_PHA 2023, 25 mg/kg) of the same compound?
A: 5810 nM

Q: What about the concentration at 24 h (BALB/c nude, colon, 50 mg/kg, sheet colon, Capan-2, Capan-2 #3_PHA 2023, 50 mg/kg) of the same compound?
A: 147 nM

Q: And the concentration at 24 h (BALB/c nude, colon, 100 mg/kg, sheet colon, Capan-2, Capan-2 #3_PHA 2023, 100 mg/kg)?
A: 531 nM

Q: What about the concentration at 2 h [1] of the same compound?
A: 175 nM

Q: What about the concentration at 4 h [1] of the same compound?
A: 255 nM

Q: What about the concentration at 8 h [1] of the same compound?
A: 195 nM

Q: What about the concentration at 24 h [1] of the same compound?
A: 48.3 nM

Q: And the concentration at 2 h [2]?
A: 469 nM

Q: What about the concentration at 4 h [2] of the same compound?
A: 883 nM

Q: What about the concentration at 8 h [2] of the same compound?
A: 1080 nM

Q: And the concentration at 24 h [2]?
A: 219 nM

Q: And the concentration at 48 h [2]?
A: 41.6 nM

Q: And the concentration at 2 h [3]?
A: 1640 nM

Q: And the concentration at 4 h [3]?
A: 2370 nM

Q: And the concentration at 8 h [3]?
A: 1360 nM

Q: And the concentration at 24 h [3]?
A: 512 nM

Q: And the concentration at 48 h [3]?
A: 147 nM

Q: What about the concentration at 2 h [4] of the same compound?
A: 5540 nM

Q: And the concentration at 4 h [4]?
A: 7670 nM

Q: What about the concentration at 8 h [4] of the same compound?
A: 4410 nM

Q: And the concentration at 24 h [4]?
A: 1110 nM

Q: What about the concentration at 48 h [4] of the same compound?
A: 276 nM

Q: And the concentration at 2 h [5]?
A: 12300 nM

Q: And the concentration at 8 h [5]?
A: 6560 nM

Q: And the concentration at 24 h [5]?
A: 2500 nM

Q: What about the Kp (BALB/c nude, 3 mg/kg, Capan-2 (3 mg/kg), single dose) of the same compound?
A: 3.3

Q: What about the Kp (BALB/c nude, 10 mg/kg, Capan-2 (10 mg/kg), single dose) of the same compound?
A: 4.6

Q: And the Kp (BALB/c nude, 25 mg/kg, Capan-2 (25 mg/kg), single dose)?
A: 5.8

Q: And the concentration at 2 h [6]?
A: 15.2 nM

Q: What about the concentration at 8 h [6] of the same compound?
A: 14.8 nM

Q: And the concentration at 24 h [6]?
A: 5.5 nM

Q: What about the concentration at 2 h [7] of the same compound?
A: 314 nM

Q: What about the concentration at 8 h [7] of the same compound?
A: 136 nM

Q: And the concentration at 24 h [7]?
A: 67 nM

Q: And the concentration at 48 h [7]?
A: 22 nM

Q: And the concentration at 2 h [8]?
A: 148 nM

Q: And the concentration at 4 h [8]?
A: 290 nM

Q: What about the concentration at 8 h [8] of the same compound?
A: 231 nM

Q: What about the concentration at 24 h [8] of the same compound?
A: 109 nM

Q: What about the concentration at 48 h [8] of the same compound?
A: 48.6 nM

Q: What about the concentration at 8 h (BALB/c nude, tumor, 3 mg/kg, sheet colon, Capan-2, Capan-2 #3_PHA 2023, 3 mg/kg) of the same compound?
A: 567 nM

Q: What about the concentration at 2 h [9] of the same compound?
A: 671 nM

Q: And the concentration at 8 h [9]?
A: 829 nM

Q: What about the concentration at 24 h [9] of the same compound?
A: 406 nM

Q: And the concentration at 48 h [9]?
A: 101 nM

Q: And the concentration at 2 h [10]?
A: 630 nM

Q: What about the concentration at 4 h [10] of the same compound?
A: 1230 nM

Q: And the concentration at 8 h [10]?
A: 1120 nM

Q: What about the concentration at 24 h [10] of the same compound?
A: 563 nM

Q: And the concentration at 48 h [10]?
A: 142 nM

Q: What about the concentration at 4 h [11] of the same compound?
A: 3110 nM

Q: And the concentration at 8 h [11]?
A: 1860 nM

Q: What about the concentration at 24 h [11] of the same compound?
A: 40.6 nM

Q: And the concentration at 2 h [12]?
A: 2200 nM

Q: And the concentration at 8 h [12]?
A: 2400 nM

Q: And the concentration at 24 h [12]?
A: 1250 nM

Q: What about the concentration at 2 h [13] of the same compound?
A: 2210 nM

Q: And the concentration at 4 h [13]?
A: 3050 nM

Q: And the concentration at 8 h [13]?
A: 2290 nM

Q: And the concentration at 24 h [13]?
A: 1130 nM

Q: What about the concentration at 4 h [14] of the same compound?
A: 6440 nM

Q: And the concentration at 8 h [14]?
A: 3260 nM

Q: What about the concentration at 2 h [15] of the same compound?
A: 3660 nM

Q: And the concentration at 8 h [15]?
A: 3360 nM

Q: What about the concentration at 24 h [15] of the same compound?
A: 1740 nM

Q: And the concentration at 2 h [16]?
A: 4650 nM

Q: What about the concentration at 4 h [16] of the same compound?
A: 5600 nM

Q: And the concentration at 8 h [16]?
A: 5310 nM

Q: And the concentration at 24 h [16]?
A: 2520 nM

Q: What about the concentration at 2 h [17] of the same compound?
A: 21800 nM

Q: And the concentration at 4 h [17]?
A: 10600 nM

Q: And the concentration at 2 h [18]?
A: 10400 nM

Q: And the concentration at 4 h [18]?
A: 17300 nM

Q: And the concentration at 8 h [18]?
A: 7500 nM

Q: And the concentration at 24 h [18]?
A: 4270 nM

Q: What about the concentration at 48 h [18] of the same compound?
A: 1150 nM

Q: And the concentration at 2 h [19]?
A: 25300 nM

Q: What about the concentration at 4 h [19] of the same compound?
A: 30100 nM

Q: What about the half-life (BALB/c nude, tumor, po, 3 mg/kg, Capan-2 (3 mg/kg), single dose, read-out: Tumor t1/2 (converted)) of the same compound?
A: 16.6 h

Q: And the half-life (BALB/c nude, tumor, po, 10 mg/kg, Capan-2 (10 mg/kg), single dose, read-out: Tumor t1/2 (converted))?
A: 15.7 h

Q: And the half-life (BALB/c nude, tumor, po, 25 mg/kg, Capan-2 (25 mg/kg), single dose, read-out: Tumor t1/2 (converted))?
A: 14 h

Q: And the Cmax [20]?
A: 252 ng/mL

Q: And the AUC(0-t) [20]?
A: 1560 ng·h/mL

Q: And the Cmax [21]?
A: 950 ng/mL

Q: What about the AUC(0-t) [21] of the same compound?
A: 5090 ng·h/mL

Q: What about the half-life (BALB/c nude, whole blood, po, 10 mg/kg, Capan-2 (10 mg/kg), single dose, read-out: Blood t1/2 (converted)) of the same compound?
A: 3.77 h

Q: And the Cmax [22]?
A: 2920 ng/mL

Q: And the AUC(0-t) [22]?
A: 11600 ng·h/mL

Q: What about the half-life (BALB/c nude, whole blood, po, 25 mg/kg, Capan-2 (25 mg/kg), single dose, read-out: Blood t1/2 (converted)) of the same compound?
A: 2.77 h

Q: And the half-life (Balb/c nude, tumor (intracranial), po, 25 mg/kg, LU99-luc IC (25 mg/kg), intracranial tumor, read-out: Tumor t1/2 (converted))?
A: 16.1 h

Q: What about the half-life (Balb/c nude, tumor (subcutaneous xenograft), sc, 25 mg/kg, LU99-luc SC (25 mg/kg), subcutaneous xenograft tumor, read-out: Tumor t1/2 (converted)) of the same compound?
A: 25.3 h

Q: What about the Cmax [23] of the same compound?
A: 2020 ng/mL

Q: And the AUC(0-t) [23]?
A: 14000 ng·h/mL

Q: What about the Cmax (Balb/c nude, whole blood, po, 25 mg/kg, LU99-luc IC (25 mg/kg), single dose) of the same compound?
A: 2500 ng/mL

— PMC11149917, “Translational and Therapeutic Evaluation of RAS-GTP Inhibition by RMC-6236 in RAS-Driven Cancers” (Cancer Discovery, 2024)
